{
  "source": "patent US20070276032A1",
  "about": "“Use of 8-Prenylnaringenin for Hormone Replacement Therapy” (priority 2003, published 2007)",
  "key": {"ovariectomized rats [1]": {"test_system": "ovariectomized rats", "experiment": "Trabecular density of proximal tibia, 8-PN racemic, 2S(−) 8-PN and estradiol hemihydrate in ovariectomized rats (Example 4)", "format": "in vivo, Sprague-Dawley rats", "details": "OVX rats; s.c. 28 days; 20 mg/kg/d in HP-β-CD", "method": "(§1) The aim of the study was to directly compare the effects of Prenylnaringenin (racemate) and 2S(−) 8-Prenylnaringenin to the effects of estradiol hemihydrate on bone mineral density and uterine weight on 3-month-old ovariectomized rats using identical formulations. In addition, the effects of estradiolhemihydrate in two vehicles (oily, aqueous) were examined for influence of formulations. The substances were administered subcutaneously(s.c.) seven days a week beginning the day after ovariectomy. At the end of the study, uterine weight and bone mineral density (BMD) of tibia were measured.\n(§2) Forty-one female Sprague-Dawley rats, 12-14 weeks of age were randomized into six groups, 6-8 animals in each. Five groups were ovariectomized (OVX) and one group was sham-operated (SHAM). Treatments started on the day following operation and continued for 28 days. The animals were treated s.c. once a day seven times a week as follows. Group 1 (SHAM vehicle group) and group 2 (OVX vehicle group) were given the vehicle 30% hydroxypropyl-β-cyclodextrin (HP-β-CD). Groups 3 and 4 were administered 4 μg/kg/d of estradiol hemihydrate in vehicle benzyl benzoate/ricinus oil (B/R) and in vehicle HP-β-CD, respectively. Groups 5 and 6 were given 20 mg/kg/d of 2S(−)8-Prenylnaringenin and racemic 8-Prenylnaringenin, respectively, both in vehicle HP-β-CD. At the end of the study, left tibiae were excised for the ex vivo BMD […] were taken from all dosing solutions on the first and last day of use.\n(§3) Vehicle 1 (used in the groups 1 and 2): 30% hydroxypropyl-β-cyclodextrin and 0.3% NaCl (w/v), 5% ethanol (v/v) in Aqua sterilisata, pH 7.4.\n(§4) Vehicle 2 (used when preparing dosing solutions of the groups 4, 5 and 6): 30% hydroxypropyl-β-cyclodextrin and 0.3% NaCl (w/v) in Aqua sterilisata, pH 7.4.\n(§5) Vehicle 3 (used when preparing a dosing solution of the group 3): benzyl benzoate/ricinus oil (B/R) 1+4, v/v."}, "ERE-Luc": {"test_system": "ERE-Luc", "experiment": "Estrogenic activity in the estrogen reporter mouse ERE-Luc model, luciferase activity in organs (Example 5)", "format": "in vivo, mice", "method": "In order to avoid experimental noise male animals were used.\nFourtyfive heterozygous male ERE-Luc mice of two months of age were fed with soy-free diet for two weeks before assigning them to each experimental group then all the mice were injected intraperitoneally (i.p.) with 250 μl of an oily solution containing the following compounds: • 1. Experimental group 1: vehicle • 2. Experimental group 2: 17β-estradiol at 1.5 μg/kg • 3. Experimental group 3: 2S(−)-8-PN at 30 mg/kg • 4. […] Experimental group 5: genistein at 30 mg/kg.\nThe treatment was carried out in experimental groups of three mice each and repeated three times (therefore numbers reflect the average of […] determinations on a total of 9 animals).\nSix hours after the injection, mice were sacrificed by cervical dislocation and organs were dissected and frozen on dry ice. The following organs were analyzed for lucifererase activity by enzymatic assay: prostate, liver, bone, brain.\nData represent means ±standard deviation of N=9 animals per group.\nAnalysis of variance (ANOVA) for overall comparison was followed by Tukey test for paired comparisons. All statistical procedures were carried out with Systat and SAS (*P<0.05; **P<0.01)."}, "ovariectomized rats [2]": {"test_system": "ovariectomized rats", "experiment": "Relative uterus weight, 8-PN racemic, 2S(−) 8-PN and estradiol hemihydrate in ovariectomized rats (Example 4)", "format": "in vivo, Sprague-Dawley rats", "details": "OVX rats", "method": "as §1, §2, §3, §4, §5"}, "[3]": {"details": "ERE-Luc mice, at the dosages used"}, "[4]": {"details": "s.c. 28 days, 20 mg/kg/d in HP-β-CD, calculated as percentage of body weight"}},
  "data": [
    {"smiles": "CC(C)=CCc1c(O)cc(O)c2c1O[C@H](c1ccc(O)cc1)CC2=O", "note": "[2S(−)8-PN, 2S(−) 8-Prenylnaringenin]", "values": [
      {"measurement": "Trabecular density at left proximal tibia, Mean", "setting": "ovariectomized rats [1]", "value": 352, "unit": "mg/cm3"},
      {"measurement": "Trabecular density at left proximal tibia, Median", "setting": "ovariectomized rats [1]", "value": 352, "unit": "mg/cm3"},
      {"measurement": "agonist profile in bone and prostate compared with the other compounds", "setting": "ERE-Luc; [3]", "value": "much stronger agonist profile in bone and prostate when compared to the other compounds"},
      {"measurement": "estrogenic activity in liver compared with the other compounds", "setting": "ERE-Luc; [3]", "value": "almost identical to that of the other compounds"},
      {"measurement": "Luciferase activity, Bone", "setting": "ERE-Luc; male ERE-Luc mice, i.p. 30 mg/kg, six hours after the injection, controls 2.8", "value": "5.5 ** arbitrary units"},
      {"measurement": "Luciferase activity, Brain", "setting": "ERE-Luc; male ERE-Luc mice, i.p. 30 mg/kg, six hours after the injection, controls 6.5", "value": 8.0, "unit": "arbitrary units"},
      {"measurement": "Luciferase activity, Liver", "setting": "ERE-Luc; male ERE-Luc mice, i.p. 30 mg/kg, six hours after the injection, controls 7.6", "value": "12.5 ** arbitrary units"},
      {"measurement": "effect on the uterus and body weight compared with estradiol in the same vehicle (HP-β-CD)", "setting": "ovariectomized rats [2]; 20 mg/kg/d vs estradiol 4 μg/kg/d, same bone effective dose", "value": "much lower effect on the uterus and body weight than estradiol at the same bone effective dose"},
      {"measurement": "Relative uterus weight, Mean", "setting": "ovariectomized rats [2]; [4]", "value": 0.067},
      {"measurement": "Relative uterus weight, Median", "setting": "ovariectomized rats [2]; [4]", "value": 0.067}
    ]}
  ]
}
